Experimental data from US8524290B2, “Non-occluding nasal moisturizer and methods of use” (priority 2010, dated 2013).

System: nasal epithelium
Assay: Transepidermal water loss of the nasal epithelium (TEWAMETER 300 evaporation meter)
Format: in vivo
Details: single nostril, after application, compared with basal state
Protocol: A single nostril is administered the test composition of Example 1 or a comparator solution, and transepidermal water loss is measured using an evaporation meter ([…] 300; Courage+Khazaka electronic GmbH, Germany) using the original probe. Subjects are positioned in a seated posture and hold their breath during measurements. Basal measurements are performed prior to application of a test composition.

With O [water] the transepidermal water loss was “Little change”.
